Measured values reported in PMC6934184, “Selective DNA-PKcs inhibition extends the therapeutic index of localized radiotherapy and chemotherapy” (The Journal of Clinical Investigation, 2019).

Target: T1, AMPK A1/B1/G1 (Homo sapiens, UniProt Q13131)
T1 construct: purchased Thermo Fisher Scientific (Life Technologies) SelectScreen
Experiment: SelectScreen Z'LYTE
Assay type: biochemical
In short: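 Compound tested in SelectScreen activity assays, Z'LYTE for CSF1R, CDK1/cyclin B and MAP2K6 and Adapta for CAMK1. ATP for CAMK1 was listed as 10, and Km app was used for CSF1R. Results are expressed in percent.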

T1 sequence (Q13131 whole entry): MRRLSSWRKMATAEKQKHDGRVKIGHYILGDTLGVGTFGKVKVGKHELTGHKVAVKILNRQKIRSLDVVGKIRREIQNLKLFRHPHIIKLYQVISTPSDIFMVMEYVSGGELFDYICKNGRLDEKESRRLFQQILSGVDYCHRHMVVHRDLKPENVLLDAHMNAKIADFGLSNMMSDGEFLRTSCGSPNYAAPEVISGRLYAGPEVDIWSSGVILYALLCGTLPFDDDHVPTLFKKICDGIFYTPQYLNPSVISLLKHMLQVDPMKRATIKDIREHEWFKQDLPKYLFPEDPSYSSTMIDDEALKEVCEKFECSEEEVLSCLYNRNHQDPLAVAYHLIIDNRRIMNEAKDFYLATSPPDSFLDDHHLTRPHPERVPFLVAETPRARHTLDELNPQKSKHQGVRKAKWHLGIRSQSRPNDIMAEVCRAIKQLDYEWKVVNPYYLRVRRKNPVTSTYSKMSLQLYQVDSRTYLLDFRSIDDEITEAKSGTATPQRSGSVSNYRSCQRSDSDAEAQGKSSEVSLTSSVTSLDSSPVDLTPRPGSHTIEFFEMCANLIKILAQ
T1 sequence (Q9Y478 whole entry partner): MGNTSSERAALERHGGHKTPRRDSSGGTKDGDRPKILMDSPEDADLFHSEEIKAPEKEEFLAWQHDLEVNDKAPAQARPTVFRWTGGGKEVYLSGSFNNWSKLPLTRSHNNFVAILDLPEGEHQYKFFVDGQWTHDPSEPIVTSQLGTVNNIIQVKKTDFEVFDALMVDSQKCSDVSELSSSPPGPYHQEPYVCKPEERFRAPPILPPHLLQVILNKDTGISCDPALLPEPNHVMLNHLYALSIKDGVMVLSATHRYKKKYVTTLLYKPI
T1 sequence (P54619 whole entry partner): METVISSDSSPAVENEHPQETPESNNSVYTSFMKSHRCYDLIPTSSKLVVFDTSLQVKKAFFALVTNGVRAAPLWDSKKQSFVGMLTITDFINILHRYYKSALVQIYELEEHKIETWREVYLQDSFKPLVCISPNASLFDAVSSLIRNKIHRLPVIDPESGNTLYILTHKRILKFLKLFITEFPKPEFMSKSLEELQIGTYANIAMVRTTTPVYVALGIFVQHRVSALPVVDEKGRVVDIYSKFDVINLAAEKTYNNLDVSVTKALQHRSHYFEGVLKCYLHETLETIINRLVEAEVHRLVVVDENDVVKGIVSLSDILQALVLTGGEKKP

## CN(C(=O)CN1CCOCC1)c1ccc2sc3c(-c4cccc5c(=O)cc(N6CC7CCC(C6)O7)oc45)cccc3c2c1 [NU5455]
  inhibition at 1 µM: -1.2%
